Reference: PubChem BioAssay (NCI)
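How tested: cells in 96-well plates exposed to compound for 48 hours at five concentrations. GI50 is the concentration that inhibits growth by half. The concentration for full growth arrest is given as TGI.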

Assays:
Assay in all cases: NCI anticancer screen, dose series, 48 h
786-0 renal = system: 786-0 renal
A549 NSCLC = system: A549 NSCLC
ACHN renal = system: ACHN renal
CAKI-1 renal = system: CAKI-1 renal
CCRF-CEM leukemia = system: CCRF-CEM leukemia
COLO 205 colon = system: COLO 205 colon
HL-60(TB) leukemia = system: HL-60(TB) leukemia
HOP-62 NSCLC = system: HOP-62 NSCLC
HOP-92 NSCLC = system: HOP-92 NSCLC
IGROV1 ovarian = system: IGROV1 ovarian
K-562 leukemia = system: K-562 leukemia
M14 melanoma = system: M14 melanoma
MALME-3M melanoma = system: MALME-3M melanoma
MCF7 breast = system: MCF7 breast
MDA-MB-435 = system: MDA-MB-435
MOLT-4 leukemia = system: MOLT-4 leukemia
NCI-H23 lung = system: NCI-H23 lung
NCI-H460 lung = system: NCI-H460 lung
NCI/ADR-RES ovarian = system: NCI/ADR-RES ovarian
OVCAR-4 ovarian = system: OVCAR-4 ovarian
RPMI-8226 leukemia = system: RPMI-8226 leukemia
RXF 393 renal = system: RXF 393 renal
SF-268 CNS = system: SF-268 CNS
SK-MEL-2 melanoma = system: SK-MEL-2 melanoma
SK-MEL-28 melanoma = system: SK-MEL-28 melanoma
SK-MEL-5 melanoma = system: SK-MEL-5 melanoma
SK-OV-3 ovarian = system: SK-OV-3 ovarian
SNB-75 CNS = system: SNB-75 CNS
SR leukemia = system: SR leukemia
SW-620 colon = system: SW-620 colon
T-47D breast = system: T-47D breast
U251 CNS = system: U251 CNS
UACC-62 melanoma = system: UACC-62 melanoma
A498 renal = system: A498 renal
BT-549 breast = system: BT-549 breast
DU-145 prostate = system: DU-145 prostate
EKVX NSCLC = system: EKVX NSCLC
HCC-2998 colon = system: HCC-2998 colon
HCT-116 colon = system: HCT-116 colon
HCT-15 colon = system: HCT-15 colon
HT29 colon = system: HT29 colon
KM12 colon = system: KM12 colon
LOX IMVI melanoma = system: LOX IMVI melanoma
MDA-MB-231 breast = system: MDA-MB-231 breast
NCI-H226 lung = system: NCI-H226 lung
NCI-H522 lung = system: NCI-H522 lung
OVCAR-3 ovarian = system: OVCAR-3 ovarian
OVCAR-5 ovarian = system: OVCAR-5 ovarian
OVCAR-8 ovarian = system: OVCAR-8 ovarian
PC-3 prostate = system: PC-3 prostate
SF-295 CNS = system: SF-295 CNS
SF-539 CNS = system: SF-539 CNS
SN12C renal = system: SN12C renal
SNB-19 CNS = system: SNB-19 CNS
TK-10 renal = system: TK-10 renal
UACC-257 melanoma = system: UACC-257 melanoma
UO-31 renal = system: UO-31 renal

SMILES: C=CCN1C(=O)CS/C1=N/NC(=O)C(O)(c1ccccc1)c1ccccc1
- TGI (786-0 renal): > 10 µM
- TGI (A549 NSCLC): > 10 µM
- TGI (ACHN renal): > 10 µM
- TGI (CAKI-1 renal): > 10 µM
- TGI (CCRF-CEM leukemia): > 10 µM
- TGI (COLO 205 colon): > 10 µM
- TGI (HL-60(TB) leukemia): > 10 µM
- TGI (HOP-62 NSCLC): > 10 µM
- TGI (HOP-92 NSCLC): > 10 µM
- TGI (IGROV1 ovarian): > 10 µM
- TGI (K-562 leukemia): > 10 µM
- TGI (M14 melanoma): > 10 µM
- TGI (MALME-3M melanoma): > 10 µM
- TGI (MCF7 breast): > 10 µM
- TGI (MDA-MB-435): > 10 µM
- TGI (MOLT-4 leukemia): > 10 µM
- TGI (NCI-H23 lung): > 10 µM
- TGI (NCI-H460 lung): > 10 µM
- TGI (NCI/ADR-RES ovarian): > 10 µM
- TGI (OVCAR-4 ovarian): > 10 µM
- TGI (RPMI-8226 leukemia): > 10 µM
- TGI (RXF 393 renal): > 10 µM
- TGI (SF-268 CNS): > 10 µM
- TGI (SK-MEL-2 melanoma): > 10 µM
- TGI (SK-MEL-28 melanoma): > 10 µM
- TGI (SK-MEL-5 melanoma): > 10 µM
- TGI (SK-OV-3 ovarian): > 10 µM
- TGI (SNB-75 CNS): > 10 µM
- TGI (SR leukemia): > 10 µM
- TGI (SW-620 colon): > 10 µM
- TGI (T-47D breast): > 10 µM
- TGI (U251 CNS): > 10 µM
- TGI (UACC-62 melanoma): > 10 µM

SMILES: Cc1nc(N)sc1C(=O)Nc1cc(C(=O)NCCCN(C)C)n(C)c1
- GI50 (786-0 renal): > 100 µM
- TGI (786-0 renal): > 100 µM
- GI50 (A498 renal): > 100 µM
- TGI (A498 renal): > 100 µM
- GI50 (A549 NSCLC): > 100 µM
- TGI (A549 NSCLC): > 100 µM
- GI50 (ACHN renal): > 100 µM
- TGI (ACHN renal): > 100 µM
- GI50 (BT-549 breast): 76.7 µM
- TGI (BT-549 breast): > 100 µM
- GI50 (CAKI-1 renal): > 100 µM
- TGI (CAKI-1 renal): > 100 µM
- GI50 (CCRF-CEM leukemia): > 100 µM
- TGI (CCRF-CEM leukemia): > 100 µM
- GI50 (COLO 205 colon): > 100 µM
- TGI (COLO 205 colon): > 100 µM
- GI50 (DU-145 prostate): 67.3 µM
- TGI (DU-145 prostate): > 100 µM
- GI50 (EKVX NSCLC): > 100 µM
- TGI (EKVX NSCLC): > 100 µM
- GI50 (HCC-2998 colon): > 100 µM
- TGI (HCC-2998 colon): > 100 µM
- GI50 (HCT-116 colon): > 100 µM
- TGI (HCT-116 colon): > 100 µM
- GI50 (HCT-15 colon): > 100 µM
- TGI (HCT-15 colon): > 100 µM
- GI50 (HL-60(TB) leukemia): > 100 µM
- TGI (HL-60(TB) leukemia): > 100 µM
- GI50 (HOP-62 NSCLC): > 100 µM
- TGI (HOP-62 NSCLC): > 100 µM
- GI50 (HOP-92 NSCLC): > 100 µM
- TGI (HOP-92 NSCLC): > 100 µM
- GI50 (HT29 colon): > 100 µM
- TGI (HT29 colon): > 100 µM
- GI50 (IGROV1 ovarian): > 100 µM
- TGI (IGROV1 ovarian): > 100 µM
- GI50 (K-562 leukemia): > 100 µM
- TGI (K-562 leukemia): > 100 µM
- GI50 (KM12 colon): > 100 µM
- TGI (KM12 colon): > 100 µM
- GI50 (LOX IMVI melanoma): > 100 µM
- TGI (LOX IMVI melanoma): > 100 µM
- GI50 (MALME-3M melanoma): > 100 µM
- TGI (MALME-3M melanoma): > 100 µM
- GI50 (MCF7 breast): > 100 µM
- TGI (MCF7 breast): > 100 µM
- GI50 (MDA-MB-231 breast): > 100 µM
- TGI (MDA-MB-231 breast): > 100 µM
- GI50 (MDA-MB-435): > 100 µM
- TGI (MDA-MB-435): > 100 µM
- GI50 (MOLT-4 leukemia): > 100 µM
- TGI (MOLT-4 leukemia): > 100 µM
- GI50 (NCI-H226 lung): > 100 µM
- TGI (NCI-H226 lung): > 100 µM
- GI50 (NCI-H23 lung): > 100 µM
- TGI (NCI-H23 lung): > 100 µM
- GI50 (NCI-H460 lung): > 100 µM
- TGI (NCI-H460 lung): > 100 µM
- GI50 (NCI-H522 lung): > 100 µM
- TGI (NCI-H522 lung): > 100 µM
- GI50 (NCI/ADR-RES ovarian): > 100 µM
- TGI (NCI/ADR-RES ovarian): > 100 µM
- GI50 (OVCAR-3 ovarian): > 100 µM
- TGI (OVCAR-3 ovarian): > 100 µM
- GI50 (OVCAR-4 ovarian): > 100 µM
- TGI (OVCAR-4 ovarian): > 100 µM
- GI50 (OVCAR-5 ovarian): > 100 µM
- TGI (OVCAR-5 ovarian): > 100 µM
- GI50 (OVCAR-8 ovarian): > 100 µM
- TGI (OVCAR-8 ovarian): > 100 µM
- GI50 (PC-3 prostate): > 100 µM
- TGI (PC-3 prostate): > 100 µM
- GI50 (RPMI-8226 leukemia): 60.1 µM
- TGI (RPMI-8226 leukemia): > 100 µM
- GI50 (RXF 393 renal): > 100 µM
- TGI (RXF 393 renal): > 100 µM
- GI50 (SF-268 CNS): > 100 µM
- TGI (SF-268 CNS): > 100 µM
- GI50 (SF-295 CNS): > 100 µM
- TGI (SF-295 CNS): > 100 µM
- GI50 (SF-539 CNS): > 100 µM
- TGI (SF-539 CNS): > 100 µM
- GI50 (SK-MEL-2 melanoma): > 100 µM
- TGI (SK-MEL-2 melanoma): > 100 µM
- GI50 (SK-MEL-28 melanoma): 65.4 µM
- TGI (SK-MEL-28 melanoma): > 100 µM
- GI50 (SK-MEL-5 melanoma): > 100 µM
- TGI (SK-MEL-5 melanoma): > 100 µM
- GI50 (SK-OV-3 ovarian): > 100 µM
- TGI (SK-OV-3 ovarian): > 100 µM
- GI50 (SN12C renal): > 100 µM
- TGI (SN12C renal): > 100 µM
- GI50 (SNB-19 CNS): > 100 µM
- TGI (SNB-19 CNS): > 100 µM
- GI50 (SNB-75 CNS): > 100 µM
- TGI (SNB-75 CNS): > 100 µM
- GI50 (SR leukemia): > 100 µM
- TGI (SR leukemia): > 100 µM
- GI50 (SW-620 colon): > 100 µM
- TGI (SW-620 colon): > 100 µM
- GI50 (T-47D breast): 35.7 µM
- TGI (T-47D breast): > 100 µM
- GI50 (TK-10 renal): > 100 µM
- TGI (TK-10 renal): > 100 µM
- GI50 (U251 CNS): > 100 µM
- TGI (U251 CNS): > 100 µM
- GI50 (UACC-257 melanoma): > 100 µM
- TGI (UACC-257 melanoma): > 100 µM
- GI50 (UACC-62 melanoma): > 100 µM
- TGI (UACC-62 melanoma): > 100 µM
- GI50 (UO-31 renal): > 100 µM
- TGI (UO-31 renal): > 100 µM
